Results reported in PMC3466204 (PLoS ONE, 2012).
Where “and” joins values, the source holds several entries; their conditions need not be identical. Equal values may be shown once. Ends that are not written are not given here.

Experiments:
L. lactis HP = assay: Broth MIC, Gram positive; type: cell-based; details: broth microtitre, BSA pre-treated plates, 10^5 cfu ml^−1, 2-fold dilutions from 500 nM, 16 h, purified peptide, mean of triplicate assays
Experimental: (§1) Minimum inhibitory concentration determinations for Gram positive organisms were carried out in triplicate in microtitre plates (Sarstedt). 96 well microtitre plates were pre-treated with bovine serum albumin (BSA) prior to addition of the peptides. Briefly, to each well of the microtitre plate 200 µL of phosphate buffered saline (PBS) containing 1% (w/v) bovine serum albumin (PBS/BSA) was added and incubated at 37°C for 30 min. The wells were washed with 200 µL PBS and allowed to dry. Target strains were grown overnight in the appropriate conditions and medium, subcultured into fresh broth and allowed to grow to an OD600 of ∼0.5, diluted to a final concentration of 10^5 cfu ml^−1 in a volume of 0.2 ml. Wild type nisin and nisin mutant peptides were adjusted to a 10 µM (S. mitis, B. cereus), 7.5 µM (L. monocytogenes), 5 µM (hVISA) 2.5 µM (MRSA, E. durans), or 500 nM (L. lactis strains) starting concentration and 2-fold serial dilutions of each peptide were added to the target strain.

L. lactis MG1363 = assay: Broth MIC, Gram positive; type: cell-based; details: broth microtitre, BSA pre-treated plates, 10^5 cfu ml^−1, 2-fold dilutions from 500 nM, 16 h, purified peptide, mean of triplicate assays
Experimental: as §1

L. monocytogenes 10403S = assay: Broth MIC, Gram positive; type: cell-based; details: broth microtitre, BSA pre-treated plates, 10^5 cfu ml^−1, 2-fold dilutions from 7.5 µM, 16 h 37°C, purified peptide, mean of triplicate assays
Experimental: as §1

L. monocytogenes LO28 = assay: Broth MIC, Gram positive; type: cell-based; details: broth microtitre, BSA pre-treated plates, 10^5 cfu ml^−1, 2-fold dilutions from 7.5 µM, 16 h 37°C, purified peptide, mean of triplicate assays
Experimental: as §1

S. aureus RF122 = assay: Broth MIC, Gram positive; type: cell-based; details: broth microtitre, BSA pre-treated plates, 10^5 cfu ml^−1, 2-fold dilutions, 16 h 37°C, purified peptide, mean of triplicate assays
Experimental: as §1

[1] = tested on: ST 528 (Methicillin resistant S. aureus); assay: Broth MIC, Gram positive; type: cell-based; details: broth microtitre, BSA pre-treated plates, 10^5 cfu ml^−1, 2-fold dilutions from 2.5 µM, 16 h 37°C, purified peptide, mean of triplicate assays
Experimental: as §1

[2] = tested on: ST 530 (Methicillin resistant S. aureus); assay: Broth MIC, Gram positive; type: cell-based; details: broth microtitre, BSA pre-treated plates, 10^5 cfu ml^−1, 2-fold dilutions from 2.5 µM, 16 h 37°C, purified peptide, mean of triplicate assays
Experimental: as §1

[3] = tested on: hVISA 32679 (heterogenous Vancomycin-intermediate S. aureus); assay: Broth MIC, Gram positive; type: cell-based; details: broth microtitre, BSA pre-treated plates, 10^5 cfu ml^−1, 2-fold dilutions from 5 µM, 16 h 37°C, purified peptide, mean of triplicate assays
Experimental: as §1

C. sakazakii DPC 6440 = assay: Agarose gel diffusion assay, peptide alone or with polymyxin B nonapeptide (PMBN); type: cell-based, Cronobacter sakazakii
Experimental: Agarose-based deferred antagonism assays were carried out as follows: GM17/LB (0.03%) underlay was prepared with 10 mM sodium phosphate buffer (SPB) at pH 7.4 to which was added agarose (1% w/v agarose), autoclaved and cooled to 50°C. Bacteria grown to mid-logarithmic phase were harvested by centrifugation and washed with 10 mM SPB at pH 7.4. Bacteria were then added to 15 mls cooled underlay medium to reach a concentration of 2×10^7 colony-forming units (CFU)/mL. The inoculated medium was rapidly transferred into sterile Petri plates, allowed to solidify and dried. Wells (4.6 mm in diameter) were then made in the seeded plates. 10 µl volumes of cell-free supernatant from overnight nisin derivative producing cultures or resuspended purified peptides were then added to the wells and the plates incubated at 30°C (L. lactis) or 37°C (Gram positive strains) or RT (Gram negative strains) for 3 hours. Polymyxin B (Sigma Aldrich) was used at a concentration of 20 µg/ml. The plates were then overlaid with 15 mls of autoclaved double strength GM17 (L. lactis) or LB (Gram negatives) agarose (1% w/v agarose) overlay medium precooled to 50°C. The plates were then incubated overnight at the relevant temperature.
Polymyxin B (PMB) is a cyclic lipodecapaptide produced by bacteria of the genus Paenibacillus that acts primarily on the Gram negative cell wall, leading to rapid permeability changes in the cytoplasmic membrane and ultimately cell death. […] To that end, C. sakazakii DPC 6440 cells were treated with purified nisin A, S29G and S29A peptides alone (30 µM) or in combination with PMBN at a concentration of 20 µg/ml and determined the antimicrobial activity by agarose gel diffusion assay (Fig. 5). […] When used in combination with PMBN, a substantial synergistic effect was clearly evident (Fig. 5) but in this instance no significant difference in efficacy was observed between nisin A or either of the derivatives S29A or S29G.

S29G: bioengineered nisin A derivative with a serine to glycine change at position 29 (ITSISLCTPGCKTGALMGCNMKTATCHCGIHVSK; thioether (positions not given here); not fully specified (residues 2, 5, 33, bridges); UniProt P13068 24-57, looked up, variant S29G)
MIC (L. lactis HP): 0.1 mg/L and 0.031 µM | MIC (L. lactis MG1363): 0.4 mg/L and 0.125 µM | MIC (L. monocytogenes 10403S): 6.28 mg/L and 1.875 µM | MIC (L. monocytogenes LO28): 6.28 mg/L and 1.875 µM | MIC (S. aureus RF122): 0.52 mg/L and 0.156 µM | MIC [1]: 0.26 mg/L and 0.078 µM | MIC [2]: 0.26 mg/L and 0.078 µM | MIC [3]: 2 mg/L and 0.625 µM | Total area of inhibitory zone, peptide alone (C. sakazakii DPC 6440; purified peptide 30 µM alone): 48.2±0.7 mm^2 | Total area of inhibitory zone, peptide + PMBN (C. sakazakii DPC 6440; purified peptide 30 µM in combination with polymyxin B nonapeptide (PMBN) 20 µg/ml): 118.6±5.0 mm^2
